From ChEMBL document CHEMBL5442379, “ASAP - SARS-CoV-2 nsp3 macrodomain single point” (2024)

Target: Replicase polyprotein 1ab (Severe acute respiratory syndrome coronavirus 2) (UniProt P0DTD1)
Description: Functional biochemical assay to identify treatments for viral infectious disease that targets SARS-COV-2 nsp3 macrodomain, whereby the mechanism of action displaces an ADP-Ribose modified peptide from the binding site. Utilizing a time-resolved fluorescence method to measure binding by reading the emitted fluorescence intensity in two wavelengths.

CC(C)n1nccc1NC(=O)c1ccc(NC(=O)Nc2ccccc2)cc1
inhibition (Concentration 49.75 uM, Number of replicates 2.0, Standard deviation 2.48 %): -2%
inhibition (Concentration 99.5 uM, Number of replicates 2.0, Standard deviation 1.778 %): -0.924%

COC(=O)c1cc2c(Oc3ccccc3C#N)ncnc2[nH]1
inhibition (Concentration 50.0 uM, Number of replicates 2.0, Standard deviation 0.741 %): 2.92%

Cn1nncc1C(=O)N(CCC(=O)N1CCNCC1)Cc1cccc(Cl)c1
inhibition (Concentration 49.75 uM, Number of replicates 2.0, Standard deviation 1.263 %): 0.447%
inhibition (Concentration 99.5 uM, Number of replicates 2.0, Standard deviation 1.735 %): -2.15%

CC(C)[C@@H](CO)[C@@H](Nc1ncnc2[nH]ccc12)C(C)C
inhibition (Concentration 49.75 uM, Number of replicates 2.0, Standard deviation 2.34 %): 6.65%
inhibition (Concentration 99.5 uM, Number of replicates 2.0, Standard deviation 2.712 %): 13.1%

Clc1cnc(OCCNc2ncnc3[nH]ccc23)c(Cl)c1
inhibition (Concentration 50.0 uM, Number of replicates 2.0, Standard deviation 2.048 %): -4.3%
inhibition (Concentration 100.0 uM, Number of replicates 2.0, Standard deviation 3.465 %): -7.69%

C[C@H](NC(=O)c1cnn2ccc(C3CCN(C(=O)c4ccccc4)CC3)cc12)c1cccnc1
inhibition (Concentration 49.75 uM, Number of replicates 2.0, Standard deviation 2.207 %): -1.84%
inhibition (Concentration 99.5 uM, Number of replicates 2.0, Standard deviation 1.542 %): -6.21%

CN(C[C@H]1CCCN1)C(=O)c1cnn2ccc(C3CCN(C(=O)c4ccccc4)CC3)cc12
inhibition (Concentration 49.75 uM, Number of replicates 2.0, Standard deviation 0.33 %): -7.47%
inhibition (Concentration 99.5 uM, Number of replicates 2.0, Standard deviation 2.559 %): -6.59%

C=CCn1c(Cc2ccccc2)nnc1Sc1ncnc2[nH]ccc12
inhibition (Concentration 50.0 uM, Number of replicates 2.0, Standard deviation 4.634 %): -7.71%

O=C(Nc1ccccc1)Nc1ccc(C(=O)N2CCn3nccc3C2)cc1
inhibition (Concentration 49.75 uM, Number of replicates 2.0, Standard deviation 2.554 %): -3.11%
inhibition (Concentration 99.5 uM, Number of replicates 2.0, Standard deviation 2.469 %): 2.3%

c1cc(CNc2ncnc3nc[nH]c23)n2ncnc2c1
inhibition (Concentration 50.0 uM, Number of replicates 2.0, Standard deviation 1.124 %): 1.35%
inhibition (Concentration 100.0 uM, Number of replicates 2.0, Standard deviation 5.338 %): 10%

O=C(NCC1(O)CCOCC1)c1cnn2ccc(C3CCN(C(=O)c4ccccc4)CC3)cc12
inhibition (Concentration 49.75 uM, Number of replicates 2.0, Standard deviation 3.347 %): -3.96%
inhibition (Concentration 99.5 uM, Number of replicates 2.0, Standard deviation 3.334 %): -1.1%

CC(C)[C@@H](Nc1ncnc2[nH]ccc12)c1cccs1
inhibition (Concentration 49.75 uM, Number of replicates 2.0, Standard deviation 1.872 %): 84.7%
inhibition (Concentration 99.5 uM, Number of replicates 2.0, Standard deviation 2.645 %): 89.9%

Cc1ccc(C(=O)N2CCC(c3ccn4ncc(C(=O)N5CCCCC5)c4c3)CC2)c(=O)[nH]1
inhibition (Concentration 49.75 uM, Number of replicates 2.0, Standard deviation 1.294 %): 3.31%
inhibition (Concentration 99.5 uM, Number of replicates 2.0, Standard deviation 2.376 %): 3.66%

Cc1noc([C@@H]2CCCN(c3ncnc4[nH]ccc34)C2)n1
inhibition (Concentration 50.0 uM, Number of replicates 2.0, Standard deviation 1.725 %): 1.92%

C[C@@H](NC(=O)c1ncnc2[nH]ccc12)c1ncc(C(=O)O)c(=O)[nH]1
inhibition (Concentration 49.75 uM, Number of replicates 2.0, Standard deviation 2.226 %): 4.87%
inhibition (Concentration 99.5 uM, Number of replicates 2.0, Standard deviation 1.623 %): 10.7%

O=C(c1ccccc1)N1CCC(c2ccn3ncc(C(=O)N4CCc5cccnc54)c3c2)CC1
inhibition (Concentration 49.75 uM, Number of replicates 2.0, Standard deviation 3.564 %): -4.67%
inhibition (Concentration 99.5 uM, Number of replicates 2.0, Standard deviation 0.208 %): -8.02%

CCCNC(=O)[C@H]1CCCN(c2ncnc3[nH]ccc23)C1
inhibition (Concentration 50.0 uM, Number of replicates 2.0, Standard deviation 0.927 %): -4.36%

Oc1ccccc1CNc1ncnc2[nH]cnc12
inhibition (Concentration 50.0 uM, Number of replicates 2.0, Standard deviation 0.892 %): 1.9%

Cc1cc(NCc2ncccc2O)ncn1
inhibition (Concentration 50.0 uM, Number of replicates 2.0, Standard deviation 4.706 %): -3.33%

Cc1[nH]cnc1C(=O)N1CCC(c2ccn3ncc(C(=O)N4CCCCC4)c3c2)CC1
inhibition (Concentration 49.75 uM, Number of replicates 2.0, Standard deviation 1.318 %): 16.4%
inhibition (Concentration 99.5 uM, Number of replicates 2.0, Standard deviation 4.675 %): 32%

C[C@@H]1CN(C(=O)c2ccc(NC(=O)Nc3ccccc3)cc2)CC(=O)N1
inhibition (Concentration 49.75 uM, Number of replicates 2.0, Standard deviation 1.912 %): -0.707%
inhibition (Concentration 99.5 uM, Number of replicates 2.0, Standard deviation 5.834 %): 0.29%

Cc1[nH]c2ncnc(NC(=O)[C@@H]3CCO[C@@H]3C)c2c1C
inhibition (Concentration 50.0 uM, Number of replicates 2.0, Standard deviation 0.696 %): 35.1%

O=C(O)c1cnc(C(=O)N2CCC(c3ccn4ncc(C(=O)N5CCCCC5)c4c3)CC2)cn1
inhibition (Concentration 49.75 uM, Number of replicates 2.0, Standard deviation 0.482 %): 27.5%
inhibition (Concentration 99.5 uM, Number of replicates 2.0, Standard deviation 1.164 %): 46.4%

c1nc(NCc2cnc3sccn23)c2[nH]cnc2n1
inhibition (Concentration 50.0 uM, Number of replicates 2.0, Standard deviation 7.011 %): -4.78%
inhibition (Concentration 100.0 uM, Number of replicates 2.0, Standard deviation 4.457 %): 5.65%

COCc1nc(CNc2ncc3c(n2)COC3)cs1
inhibition (Concentration 50.0 uM, Number of replicates 2.0, Standard deviation 8.324 %): -7.14%

c1nc(-c2nc(-c3cc(C4CC4)[nH]n3)no2)c2cc[nH]c2n1
inhibition (Concentration 50.0 uM, Number of replicates 2.0, Standard deviation 1.585 %): -4.8%
inhibition (Concentration 50.0 uM, Number of replicates 2.0, Standard deviation 2.643 %): -2.81%
inhibition (Concentration 100.0 uM, Number of replicates 2.0, Standard deviation […]): -2.45%

CNC[C@@H]1CCCN1C(=O)c1cnn2ccc(C3CCN(C(=O)c4ccccc4)CC3)cc12
inhibition (Concentration 49.75 uM, Number of replicates 2.0, Standard deviation 1.186 %): -1.47%
inhibition (Concentration 99.5 uM, Number of replicates 2.0, Standard deviation 2.864 %): -2.2%

Fc1ccc(F)c(Sc2ncnc3[nH]ccc23)c1
inhibition (Concentration 50.0 uM, Number of replicates 2.0, Standard deviation 6.588 %): -1.15%

CO[C@@H]1CCCN(C(=O)c2cnn3ccc(C4CCN(C(=O)c5ccccc5)CC4)cc23)C1
inhibition (Concentration 49.75 uM, Number of replicates 2.0, Standard deviation 1.69 %): 22.6%
inhibition (Concentration 99.5 uM, Number of replicates 2.0, Standard deviation 3.272 %): 39.8%

O=C(N[C@H](Cn1cnc2cc(F)c(F)cc21)C(=O)O)c1ncnc2[nH]ccc12
inhibition (Concentration 49.75 uM, Number of replicates 2.0, Standard deviation 5.178 %): -2.04%
inhibition (Concentration 99.5 uM, Number of replicates 2.0, Standard deviation 0.435 %): 8.39%

O=C(c1cccc(Br)c1)N1CCC(c2ccn3ncc(C(=O)N4CCCCC4)c3c2)CC1
inhibition (Concentration 50.0 uM, Number of replicates 2.0, Standard deviation 0.499 %): 32.1%

Oc1cc(CNc2ncnc3[nH]cnc23)ccn1
inhibition (Concentration 50.0 uM, Number of replicates 2.0, Standard deviation 4.588 %): -0.821%
inhibition (Concentration 100.0 uM, Number of replicates 2.0, Standard deviation 5.781 %): -3.73%

C=CCn1c(Sc2ncnc3[nH]ccc23)nc2sccc2c1=O
inhibition (Concentration 50.0 uM, Number of replicates 2.0, Standard deviation 0.219 %): 6.3%

CC(C)[C@@H](Nc1ncnc2[nH]ccc12)C(F)F
inhibition (Concentration 49.75 uM, Number of replicates 2.0, Standard deviation 1.25 %): 81.6%
inhibition (Concentration 99.5 uM, Number of replicates 2.0, Standard deviation 1.983 %): 91.7%

COc1cccc(NC(=O)c2ccc(NC(=O)Nc3ccccc3)cc2)n1
inhibition (Concentration 49.75 uM, Number of replicates 2.0, Standard deviation 3.541 %): 4.65%
inhibition (Concentration 99.5 uM, Number of replicates 2.0, Standard deviation 3.473 %): 5.37%

Cc1ncc(NCc2cnc3c(c2)NC(=O)CO3)cc1Cl
inhibition (Concentration 50.0 uM, Number of replicates 2.0, Standard deviation 2.461 %): -0.368%

Cn1c(C(=O)N(CCC(=O)N2CCNCC2)Cc2cccc(Cl)c2)cnc1O
inhibition (Concentration 49.75 uM, Number of replicates 2.0, Standard deviation 0.601 %): -4.76%
inhibition (Concentration 99.5 uM, Number of replicates 2.0, Standard deviation 2.256 %): -2.76%

Cc1[nH]c2ncnc(NC(=O)CCc3ccccc3)c2c1C
inhibition (Concentration 50.0 uM, Number of replicates 2.0, Standard deviation 2.066 %): 5.02%

FC(F)(F)CO[C@@H]1CCCN(c2ncnc3[nH]ccc23)C1
inhibition (Concentration 50.0 uM, Number of replicates 2.0, Standard deviation 28.677 %): 22.2%

NC(=O)[C@@H]1CCN(C(=O)c2cnc3[nH]c(=O)[nH]c(=O)c3c2)C1
inhibition (Concentration 50.0 uM, Number of replicates 2.0, Standard deviation 2.086 %): -6.32%

COc1cccc(Cl)c1CNc1ncnc2[nH]ncc12
inhibition (Concentration 50.0 uM, Number of replicates 2.0, Standard deviation 0.519 %): -1.83%

C[C@@H](Cc1ccc(Cl)s1)Nc1ccc([C@@H](CC(=O)O)NC(=O)c2c[nH]c3ncncc23)cc1
inhibition (Concentration 49.75 uM, Number of replicates 2.0, Standard deviation 2.68 %): -1.54%
inhibition (Concentration 99.5 uM, Number of replicates 2.0, Standard deviation 2.267 %): 1.95%

CC(C)[C@@H](CCN(C)C(=O)c1nn2cccnc2c1Cl)Nc1ncnc2[nH]ccc12
inhibition (Concentration 49.75 uM, Number of replicates 2.0, Standard deviation 6.794 %): 0.844%
inhibition (Concentration 99.5 uM, Number of replicates 2.0, Standard deviation 0.494 %): 1.65%

Cc1c(-c2cnc3nc[nH]c(=O)c3c2)ccc2[nH]ncc12
inhibition (Concentration 49.75 uM, Number of replicates 2.0, Standard deviation 0.542 %): -3.12%
inhibition (Concentration 99.5 uM, Number of replicates 2.0, Standard deviation 2.71 %): -4.36%

CC(C)[C@@H](Nc1ncnc2[nH]ccc12)C(N)=O
inhibition (Concentration 49.75 uM, Number of replicates 2.0, Standard deviation 3.584 %): 64.4%
inhibition (Concentration 99.5 uM, Number of replicates 2.0, Standard deviation 5.819 %): 77.7%

Fc1ccc(OC(F)F)c(CNc2cnc3[nH]ncc3c2)c1
inhibition (Concentration 50.0 uM, Number of replicates 2.0, Standard deviation 3.077 %): -6.67%

c1ccc(-c2nc(CNc3cccnc3)cs2)nc1
inhibition (Concentration 50.0 uM, Number of replicates 2.0, Standard deviation 0.432 %): -9.87%

CCN(Cc1nnc(C)o1)C(=O)c1cnn2ccc(C3CCN(C(=O)c4ccccc4)CC3)cc12
inhibition (Concentration 49.75 uM, Number of replicates 2.0, Standard deviation 14.085 %): 10%
inhibition (Concentration 99.5 uM, Number of replicates 2.0, Standard deviation 1.269 %): -5.31%

CN(CCOc1ccccc1)c1ncnc2[nH]ccc12
inhibition (Concentration 50.0 uM, Number of replicates 2.0, Standard deviation 4.668 %): -2.26%

CN(Cc1cn(C)nn1)C(=O)c1ccc(NC(=O)Nc2ccccc2)cc1
inhibition (Concentration 49.75 uM, Number of replicates 2.0, Standard deviation 0.56 %): 0.883%
inhibition (Concentration 99.5 uM, Number of replicates 2.0, Standard deviation 3.63 %): 0.566%
